This note sets out measurements from patent US9434724B2, “Quinuclidines for modulating alpha 7 activity” (priority 2014, dated 2016).

For the assay, the target named is rat brain nicotinic receptor (α7 NAChR) (Rattus norvegicus (Rat), UniProt Q05941). The class given is binding.
rat brain nicotinic receptor (α7 NAChR), sequence (Q05941 23-502 limits assumed): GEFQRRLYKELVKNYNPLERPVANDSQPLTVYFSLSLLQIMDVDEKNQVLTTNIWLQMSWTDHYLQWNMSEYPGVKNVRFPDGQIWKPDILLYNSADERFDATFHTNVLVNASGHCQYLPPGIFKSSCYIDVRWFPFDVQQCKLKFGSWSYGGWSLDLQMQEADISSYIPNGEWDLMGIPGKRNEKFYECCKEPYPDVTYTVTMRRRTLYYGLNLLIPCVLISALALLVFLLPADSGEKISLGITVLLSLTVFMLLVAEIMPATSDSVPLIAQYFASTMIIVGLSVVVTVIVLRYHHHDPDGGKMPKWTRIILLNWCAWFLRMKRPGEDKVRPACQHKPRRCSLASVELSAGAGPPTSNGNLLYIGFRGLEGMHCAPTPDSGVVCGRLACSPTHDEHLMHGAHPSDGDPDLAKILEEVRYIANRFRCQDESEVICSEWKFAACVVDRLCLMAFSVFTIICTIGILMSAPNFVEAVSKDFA

As a reminder, the IC50 is the concentration that inhibits the measured activity by half. By Ki is commonly meant a dissociation constant, usually derived from enzyme kinetics or from competition with a known ligand. A high value points to weaker binding. With `Cc1cc2c(C(=O)OCC34CCN(CC3)CC4)c[nH]c2cc1F` [Compound 58, quinuclidin-4-ylmethyl 6-fluoro-5-methyl-1H-indole-3-carboxylate], the midpoint of inhibition, the IC50, lay at 1810 nM and the affinity, expressed as Ki, was 1550 nM.
